In ChEMBL document CHEMBL1201862, “PubChem BioAssay data set” (2004):
Calls of active or inactive are those of the source.

How the values were obtained:
Assay type in all cases: functional
[1] = target: Insulin-like growth factor 1 receptor (Homo sapiens, UniProt P08069); experiment: Navigating the Kinome. Panel member name: IGF1R
[2] = target: Casein kinase II subunit alpha (Homo sapiens, UniProt P68400)
[3] = target: Receptor tyrosine-protein kinase erbB-4 (Homo sapiens, UniProt Q15303);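 also: ERBB4 member of a kinome-wide kinase profiling panel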
SRSF protein kinase 1 = SRSF protein kinase 1 (Homo sapiens, UniProt Q96SB4);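 also: measured as one member of a kinome-wide kinase profiling panel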
[4] = target: Tyrosine-protein kinase FRK (Homo sapiens, UniProt P42685);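 also: FRK tested as one member of a kinome panel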
[5] = target: T1, Serine/threonine-protein kinase 17A (Homo sapiens, UniProt Q9UEE5)
T1 sequence (Q9UEE5 whole entry): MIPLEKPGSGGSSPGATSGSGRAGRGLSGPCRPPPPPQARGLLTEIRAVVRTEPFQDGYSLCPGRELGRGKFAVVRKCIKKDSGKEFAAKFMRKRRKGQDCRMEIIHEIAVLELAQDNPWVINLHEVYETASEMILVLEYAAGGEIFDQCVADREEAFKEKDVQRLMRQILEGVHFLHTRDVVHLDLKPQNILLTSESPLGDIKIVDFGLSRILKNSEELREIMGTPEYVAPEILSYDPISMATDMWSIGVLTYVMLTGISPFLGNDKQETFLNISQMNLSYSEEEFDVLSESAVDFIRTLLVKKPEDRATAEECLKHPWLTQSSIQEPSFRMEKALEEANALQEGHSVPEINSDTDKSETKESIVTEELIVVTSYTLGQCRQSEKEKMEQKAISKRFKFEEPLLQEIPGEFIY

[6] = target: T2, Serine/threonine-protein kinase TAO1 (Homo sapiens, UniProt Q7L7X3)
T2 sequence (Q7L7X3 whole entry): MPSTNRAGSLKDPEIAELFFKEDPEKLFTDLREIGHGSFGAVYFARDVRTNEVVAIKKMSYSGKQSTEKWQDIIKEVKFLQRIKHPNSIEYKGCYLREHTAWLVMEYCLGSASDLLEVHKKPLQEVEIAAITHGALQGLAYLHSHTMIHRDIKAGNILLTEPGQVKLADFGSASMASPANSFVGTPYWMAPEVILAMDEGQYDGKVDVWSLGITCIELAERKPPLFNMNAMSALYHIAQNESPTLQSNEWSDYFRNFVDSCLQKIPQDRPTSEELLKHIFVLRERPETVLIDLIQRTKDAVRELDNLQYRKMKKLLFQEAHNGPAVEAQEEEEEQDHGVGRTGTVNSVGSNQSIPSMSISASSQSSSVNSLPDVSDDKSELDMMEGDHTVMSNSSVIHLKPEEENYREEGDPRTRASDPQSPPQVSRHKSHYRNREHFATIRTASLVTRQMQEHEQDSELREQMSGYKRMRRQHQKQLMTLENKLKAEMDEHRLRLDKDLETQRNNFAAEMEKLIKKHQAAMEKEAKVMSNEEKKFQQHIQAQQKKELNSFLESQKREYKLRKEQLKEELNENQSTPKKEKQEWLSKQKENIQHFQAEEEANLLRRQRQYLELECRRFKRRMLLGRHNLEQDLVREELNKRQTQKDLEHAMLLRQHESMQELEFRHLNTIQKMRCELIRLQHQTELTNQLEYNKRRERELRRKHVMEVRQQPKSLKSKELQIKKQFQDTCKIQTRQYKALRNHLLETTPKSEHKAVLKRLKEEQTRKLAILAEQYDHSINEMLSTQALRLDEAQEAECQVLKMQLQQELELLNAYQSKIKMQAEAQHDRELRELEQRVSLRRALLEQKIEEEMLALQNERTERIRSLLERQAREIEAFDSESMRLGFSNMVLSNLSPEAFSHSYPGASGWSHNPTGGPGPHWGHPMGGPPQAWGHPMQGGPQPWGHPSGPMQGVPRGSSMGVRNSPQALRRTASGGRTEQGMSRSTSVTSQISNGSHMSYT

[7] = target: STE20-like serine/threonine-protein kinase (Homo sapiens, UniProt Q9H2G2)
[8] = target: Proto-oncogene tyrosine-protein kinase ROS (Homo sapiens, UniProt P08922);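 also: ROS1 tested as one member of a kinome-wide kinase panel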
Misshapen-like kinase 1 = Misshapen-like kinase 1 (Homo sapiens, UniProt Q8N4C8);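 also: kinome panel screen with MINK as the panel member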
[9] = target: MAP kinase-activated protein kinase 5 (Homo sapiens, UniProt Q8IW41);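 also: measured as one member of a kinome panel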
[10] = target: BDNF/NT-3 growth factors receptor (Homo sapiens, UniProt Q16620);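 also: NTRK2 measured as one member of a broad kinome-wide kinase profiling panel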
[11] = target: Serine/threonine-protein kinase MRCK alpha (Homo sapiens, UniProt Q5VT25)
[12] = target: Glycogen synthase kinase-3 beta (Homo sapiens, UniProt P49841);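 also: value comes from a broad kinome profiling panel, with GSK3B as the panel member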
[13] = target: Mast/stem cell growth factor receptor Kit (Homo sapiens, UniProt P10721);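 also: KIT entry within a kinase panel assay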
[14] = target: Testis-specific serine/threonine-protein kinase 1 (Homo sapiens, UniProt Q9BXA7)
[15] = target: Mitogen-activated protein kinase 1 (Homo sapiens, UniProt P28482)
[16] = target: T3, Dual specificity tyrosine-phosphorylation-regulated kinase 4 (Homo sapiens, UniProt Q9NR20)
T3 sequence (Q9NR20 whole entry): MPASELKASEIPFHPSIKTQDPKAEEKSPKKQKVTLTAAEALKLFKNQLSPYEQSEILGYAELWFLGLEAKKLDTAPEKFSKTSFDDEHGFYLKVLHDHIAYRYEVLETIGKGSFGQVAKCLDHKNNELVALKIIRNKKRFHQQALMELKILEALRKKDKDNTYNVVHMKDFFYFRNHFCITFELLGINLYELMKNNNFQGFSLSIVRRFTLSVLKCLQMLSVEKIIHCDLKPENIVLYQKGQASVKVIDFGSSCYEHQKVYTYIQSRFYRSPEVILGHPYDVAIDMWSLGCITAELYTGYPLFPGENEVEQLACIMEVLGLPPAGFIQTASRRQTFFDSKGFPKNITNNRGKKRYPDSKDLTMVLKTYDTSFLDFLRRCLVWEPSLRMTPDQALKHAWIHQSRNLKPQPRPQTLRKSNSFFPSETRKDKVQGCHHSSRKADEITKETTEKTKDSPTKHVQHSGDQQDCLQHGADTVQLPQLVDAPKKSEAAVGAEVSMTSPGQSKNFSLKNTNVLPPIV

Chain of Tyrosine-protein kinase FRK (P42685 whole entry): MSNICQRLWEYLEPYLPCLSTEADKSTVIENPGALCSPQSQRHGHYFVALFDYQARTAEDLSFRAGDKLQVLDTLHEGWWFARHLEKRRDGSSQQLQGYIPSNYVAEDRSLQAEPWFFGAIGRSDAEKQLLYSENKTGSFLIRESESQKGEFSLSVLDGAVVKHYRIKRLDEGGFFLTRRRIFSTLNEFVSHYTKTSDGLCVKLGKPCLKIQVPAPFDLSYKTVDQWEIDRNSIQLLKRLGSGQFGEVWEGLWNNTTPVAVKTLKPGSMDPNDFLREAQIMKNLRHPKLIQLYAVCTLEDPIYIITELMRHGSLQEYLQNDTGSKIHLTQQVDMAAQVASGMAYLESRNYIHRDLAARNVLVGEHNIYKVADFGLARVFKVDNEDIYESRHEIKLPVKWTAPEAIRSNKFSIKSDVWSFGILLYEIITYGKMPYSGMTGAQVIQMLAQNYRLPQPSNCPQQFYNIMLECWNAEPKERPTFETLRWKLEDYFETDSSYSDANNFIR
Chain of Casein kinase II subunit alpha (P68400 whole entry): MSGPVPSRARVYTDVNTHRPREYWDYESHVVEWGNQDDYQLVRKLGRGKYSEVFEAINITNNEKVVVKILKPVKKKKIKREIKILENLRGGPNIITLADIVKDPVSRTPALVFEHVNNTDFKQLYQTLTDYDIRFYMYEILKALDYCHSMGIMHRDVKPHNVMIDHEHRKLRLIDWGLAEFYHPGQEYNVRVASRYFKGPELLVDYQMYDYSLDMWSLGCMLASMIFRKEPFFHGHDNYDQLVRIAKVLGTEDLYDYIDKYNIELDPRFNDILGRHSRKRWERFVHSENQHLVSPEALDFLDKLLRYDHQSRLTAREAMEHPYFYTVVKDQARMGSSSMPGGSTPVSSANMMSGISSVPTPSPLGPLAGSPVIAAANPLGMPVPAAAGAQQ
Chain of Serine/threonine-protein kinase MRCK alpha (Q5VT25 whole entry): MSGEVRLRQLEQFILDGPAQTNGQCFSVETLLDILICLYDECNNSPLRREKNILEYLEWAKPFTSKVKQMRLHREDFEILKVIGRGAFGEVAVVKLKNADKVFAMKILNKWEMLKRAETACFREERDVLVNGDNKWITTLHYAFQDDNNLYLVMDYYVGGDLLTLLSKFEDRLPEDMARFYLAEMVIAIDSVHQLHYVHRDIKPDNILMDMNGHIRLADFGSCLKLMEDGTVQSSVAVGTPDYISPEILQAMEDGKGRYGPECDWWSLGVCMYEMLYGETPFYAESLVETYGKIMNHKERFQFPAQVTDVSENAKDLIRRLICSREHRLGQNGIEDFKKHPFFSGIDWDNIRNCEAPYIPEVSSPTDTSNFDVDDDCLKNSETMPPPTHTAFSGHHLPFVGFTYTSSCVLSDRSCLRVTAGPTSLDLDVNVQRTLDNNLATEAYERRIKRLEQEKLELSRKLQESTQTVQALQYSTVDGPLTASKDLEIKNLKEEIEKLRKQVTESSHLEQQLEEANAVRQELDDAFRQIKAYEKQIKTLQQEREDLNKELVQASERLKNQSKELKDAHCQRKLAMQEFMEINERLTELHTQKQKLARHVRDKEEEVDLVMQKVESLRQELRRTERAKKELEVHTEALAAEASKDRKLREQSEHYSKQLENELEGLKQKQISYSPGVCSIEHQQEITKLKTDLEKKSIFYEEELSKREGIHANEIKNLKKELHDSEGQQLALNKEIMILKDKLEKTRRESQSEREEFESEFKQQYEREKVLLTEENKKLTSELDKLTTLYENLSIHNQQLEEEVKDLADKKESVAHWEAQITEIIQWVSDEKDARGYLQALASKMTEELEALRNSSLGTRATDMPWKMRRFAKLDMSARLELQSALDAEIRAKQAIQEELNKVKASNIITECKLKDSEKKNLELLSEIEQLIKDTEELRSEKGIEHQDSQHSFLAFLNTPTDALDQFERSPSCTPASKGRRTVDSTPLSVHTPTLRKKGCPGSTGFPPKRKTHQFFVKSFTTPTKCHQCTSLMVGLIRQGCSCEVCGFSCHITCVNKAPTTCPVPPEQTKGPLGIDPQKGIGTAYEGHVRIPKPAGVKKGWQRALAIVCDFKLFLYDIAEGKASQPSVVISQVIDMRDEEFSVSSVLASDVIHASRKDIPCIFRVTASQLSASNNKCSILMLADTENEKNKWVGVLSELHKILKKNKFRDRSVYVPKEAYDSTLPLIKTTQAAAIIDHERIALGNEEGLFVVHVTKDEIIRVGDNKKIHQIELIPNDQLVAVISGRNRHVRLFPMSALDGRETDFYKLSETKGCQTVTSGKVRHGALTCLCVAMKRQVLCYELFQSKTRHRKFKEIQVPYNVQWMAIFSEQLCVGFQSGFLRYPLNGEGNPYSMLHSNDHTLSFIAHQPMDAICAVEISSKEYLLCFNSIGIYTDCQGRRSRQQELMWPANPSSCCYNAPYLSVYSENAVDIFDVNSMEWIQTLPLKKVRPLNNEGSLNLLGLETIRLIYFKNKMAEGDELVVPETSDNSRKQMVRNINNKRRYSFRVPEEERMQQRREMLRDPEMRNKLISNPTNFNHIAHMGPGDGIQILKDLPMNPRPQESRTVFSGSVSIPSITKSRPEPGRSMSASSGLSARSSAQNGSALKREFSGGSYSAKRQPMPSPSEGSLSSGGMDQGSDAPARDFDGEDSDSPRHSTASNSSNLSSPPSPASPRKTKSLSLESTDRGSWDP
Chain of STE20-like serine/threonine-protein kinase (Q9H2G2 whole entry): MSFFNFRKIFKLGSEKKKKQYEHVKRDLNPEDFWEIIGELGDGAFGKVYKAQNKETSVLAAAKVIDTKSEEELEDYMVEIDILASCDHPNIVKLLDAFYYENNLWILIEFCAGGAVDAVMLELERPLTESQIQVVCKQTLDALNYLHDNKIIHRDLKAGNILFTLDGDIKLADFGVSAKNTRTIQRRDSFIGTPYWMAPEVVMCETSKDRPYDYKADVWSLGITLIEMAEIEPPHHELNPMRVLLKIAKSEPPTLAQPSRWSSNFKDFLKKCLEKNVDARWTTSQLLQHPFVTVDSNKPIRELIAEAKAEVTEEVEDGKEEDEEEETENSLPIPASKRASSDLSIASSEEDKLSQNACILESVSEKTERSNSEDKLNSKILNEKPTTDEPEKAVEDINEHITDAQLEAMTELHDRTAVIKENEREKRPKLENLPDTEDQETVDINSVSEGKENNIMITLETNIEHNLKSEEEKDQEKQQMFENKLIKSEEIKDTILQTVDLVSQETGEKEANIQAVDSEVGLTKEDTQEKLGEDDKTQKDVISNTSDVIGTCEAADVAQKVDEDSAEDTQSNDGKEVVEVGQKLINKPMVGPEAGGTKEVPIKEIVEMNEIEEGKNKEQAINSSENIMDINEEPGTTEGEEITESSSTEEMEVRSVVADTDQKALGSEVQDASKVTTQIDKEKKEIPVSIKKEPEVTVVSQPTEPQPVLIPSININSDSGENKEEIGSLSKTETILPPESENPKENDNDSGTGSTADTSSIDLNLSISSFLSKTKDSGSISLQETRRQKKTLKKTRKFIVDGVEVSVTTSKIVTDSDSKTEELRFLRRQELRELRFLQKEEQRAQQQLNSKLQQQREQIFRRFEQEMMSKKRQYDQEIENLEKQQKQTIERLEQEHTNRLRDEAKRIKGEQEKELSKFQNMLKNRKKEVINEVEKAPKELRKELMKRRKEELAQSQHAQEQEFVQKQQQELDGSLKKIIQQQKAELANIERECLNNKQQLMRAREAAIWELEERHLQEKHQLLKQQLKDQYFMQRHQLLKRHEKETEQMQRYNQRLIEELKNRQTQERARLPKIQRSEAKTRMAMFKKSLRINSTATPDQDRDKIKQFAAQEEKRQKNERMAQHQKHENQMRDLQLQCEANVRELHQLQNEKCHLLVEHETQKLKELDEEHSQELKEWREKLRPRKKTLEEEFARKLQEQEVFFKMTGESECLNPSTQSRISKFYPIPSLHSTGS
Chain of Mitogen-activated protein kinase 1 (P28482 whole entry): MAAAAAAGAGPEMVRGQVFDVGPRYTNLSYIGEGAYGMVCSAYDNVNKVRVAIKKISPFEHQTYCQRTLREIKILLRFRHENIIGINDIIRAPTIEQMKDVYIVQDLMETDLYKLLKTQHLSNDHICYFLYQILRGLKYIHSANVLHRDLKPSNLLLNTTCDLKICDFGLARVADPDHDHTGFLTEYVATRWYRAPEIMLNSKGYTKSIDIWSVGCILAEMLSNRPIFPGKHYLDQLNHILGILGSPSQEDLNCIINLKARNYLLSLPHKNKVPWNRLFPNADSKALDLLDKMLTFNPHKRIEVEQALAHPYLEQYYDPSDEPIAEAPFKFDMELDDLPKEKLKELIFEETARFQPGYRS
Chain of SRSF protein kinase 1 (Q96SB4 whole entry): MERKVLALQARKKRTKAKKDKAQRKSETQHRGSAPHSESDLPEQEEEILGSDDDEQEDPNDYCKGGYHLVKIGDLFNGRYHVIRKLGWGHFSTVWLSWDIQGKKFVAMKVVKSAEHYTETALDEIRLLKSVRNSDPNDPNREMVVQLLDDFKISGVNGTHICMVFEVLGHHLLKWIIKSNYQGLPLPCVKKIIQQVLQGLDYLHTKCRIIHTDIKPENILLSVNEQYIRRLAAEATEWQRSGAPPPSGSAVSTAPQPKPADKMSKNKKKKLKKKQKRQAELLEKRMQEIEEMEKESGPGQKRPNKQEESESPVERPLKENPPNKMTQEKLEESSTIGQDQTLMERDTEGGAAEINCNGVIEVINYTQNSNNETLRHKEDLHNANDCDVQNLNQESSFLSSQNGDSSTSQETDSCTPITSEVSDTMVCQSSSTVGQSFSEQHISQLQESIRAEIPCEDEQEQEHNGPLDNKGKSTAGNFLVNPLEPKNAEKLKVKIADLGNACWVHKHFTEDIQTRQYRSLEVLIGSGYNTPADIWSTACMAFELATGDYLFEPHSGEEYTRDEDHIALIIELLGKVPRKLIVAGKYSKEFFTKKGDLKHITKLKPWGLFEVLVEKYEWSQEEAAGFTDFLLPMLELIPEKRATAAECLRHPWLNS

**Q.** Which Ki [1] does the source give for NC(=O)c1cc(-c2ccnc(N)n2)[nH]c1-c1ccc(Cl)cc1Cl here?
**A.** > 2000 nM (inactive)

**Q.** What about the Ki [2] of the same molecule?
**A.** 200 nM (active)

**Q.** And the pKi [2]?
**A.** 6.7

**Q.** What about the Ki [3] of the same molecule?
**A.** > 3980 nM (inactive)

**Q.** And the Ki (SRSF protein kinase 1)?
**A.** 1260 nM (active)

**Q.** And the pKi (SRSF protein kinase 1)?
**A.** 5.9

**Q.** And the Ki [4]?
**A.** 2000 nM (active)

**Q.** What about the pKi [4] of the same molecule?
**A.** 5.7

**Q.** What about the Ki [5] of the same molecule?
**A.** 25.1 nM (active)

**Q.** What about the pKi [5] of the same molecule?
**A.** 7.6

**Q.** And the Ki [6]?
**A.** 251 nM (active)

**Q.** What about the pKi [6] of the same molecule?
**A.** 6.6

**Q.** What about the Ki [7] of the same molecule?
**A.** 10000 nM (active)

**Q.** What about the pKi [7] of the same molecule?
**A.** 5

**Q.** What about the Ki [8] of the same molecule?
**A.** > 2000 nM (inactive)

**Q.** What about the Ki (Misshapen-like kinase 1) of the same molecule?
**A.** 1580 nM (active)

**Q.** And the pKi (Misshapen-like kinase 1)?
**A.** 5.8

**Q.** What about the Ki [9] of the same molecule?
**A.** > 1580 nM (inactive)

**Q.** And the Ki [10]?
**A.** > 3980 nM (inactive)

**Q.** And the Ki [11]?
**A.** 1260 nM (active)

**Q.** What about the pKi [11] of the same molecule?
**A.** 5.9

**Q.** What about the Ki [12] of the same molecule?
**A.** 6.31 nM (active)

**Q.** What about the pKi [12] of the same molecule?
**A.** 8.2

**Q.** What about the Ki [13] of the same molecule?
**A.** > 1260 nM (inactive)

**Q.** And the Ki [14]?
**A.** > 1580 nM (inactive)

**Q.** What about the Ki [15] of the same molecule?
**A.** 31.6 nM (active)

**Q.** And the pKi [15]?
**A.** 7.5

**Q.** And the Ki [16]?
**A.** 10 nM (active)

**Q.** And the pKi [16]?
**A.** 8

**Q.** What does the source list for NC(COc1cncc(-c2ccc3c(c2)C(=Cc2ccco2)C(=O)N3)c1)Cc1c[nH]c2ccccc12 (configuration not stated)?
**A.** Ki [1]: > 1000 nM (inactive); Ki [2]: > 6310 nM (inactive); Ki [3]: > 3980 nM (inactive); Ki (SRSF protein kinase 1): 79.4 nM (active); Ki [4]: 316 nM (active); Ki [5]: 15.8 nM (active); Ki [6]: 126 nM (active); Ki [7]: 158 nM (active); Ki [8]: 1000 nM (active); Ki (Misshapen-like kinase 1): 39.8 nM (active); Ki [9]: > 1580 nM (inactive); Ki [10]: 316 nM (active); Ki [11]: 316 nM (active); Ki [12]: 63.1 nM (active); Ki [13]: 126 nM (active); Ki [14]: 6.31 nM (active); Ki [15]: 398 nM (active); Ki [16]: 398 nM (active)
